Bounds are passed on as bounds.

We go through 36 molecules from patent US6589984B1, “Benzofurylpyrone derivatives” (Teijin Limited, priority 1998, dated 2003).

The test system of the first test is Human hepatic cancer cells HepG2. Kind of test: TG production inhibiting activity (14C-acetic acid incorporation into TG) in HepG2 cells. Particulars: Homo sapiens, HepG2; group criterion, alternatives: IC50 at least 10 μM and less than 100 μM, or at least 5% and less than 30% inhibition at 1 μM, or at least 30% and less than 50% inhibition at 10 μM. The test is classed as cell-based. On the procedure: Human hepatic cancer cells HepG2 were inoculated into a 24-well plate (Costar No. 3524) at 4×10^4 cells/well, and 1 ml of medium (eRDF medium containing 10% bovine serum (Kyokuto Chemical Co.)) was used for 6 day culturing with 5% CO2 at 37° C. After drawing off the supernatant medium, the cells were freshly rinsed with 1 ml of PBS(−) buffer solution (Takara Shuzo) and drawn off. This procedure was repeated twice and then 1 ml of fresh medium (eRDF medium) was added.
6-(benzofuran-2-yl)-3,5-dimethyl-4-hydroxy-2H-pyran-2-one (Example 2) was dissolved in dimethylsulfoxide (DMSO) to prepare a 20 mM sample stock solution. A diluted solution was obtained by diluting the sample solution with DMSO.
To the cells prepared above there were added the sample stock solution or its diluted solution at 5 μl per well and 10 μl of ^14C-acetic acid solution (a solution of Amersham Code No. CFA13 diluted 4.4-fold with PBS(−) buffer), and culturing was carried out for one day with 5% CO2 at 37° C.
After the culturing was completed, the culture solution was removed, and 1 ml of extraction solution (a mixture of n-hexane and isopropyl alcohol at 2:1) was added for extraction treatment on the lipid components in the cells. After the treatment, the extract containing the obtained lipid components was air-dried, the residue was redissolved in 20 μl of a mixed solution of n-hexane and ethyl acetate at 9:1, and the solution was spotted on a thin-layer chromatography plate (S319, Tokyo Kasei) and developed by thin-layer chromatography with the mixed solution mentioned above. After air-drying, the lipid components were colored with iodine vapor, the portion corresponding to TG was cut out, and the amount of TG biosynthesized was measured with a liquid scintillation counter.
Molecule `Cc1c(-c2cc3cccc(OCc4ccccc4)c3o2)oc(=O)c(C)c1O` [Example 286, 6-(7-benzyloxybenzofuran-2-yl)-3,5-dimethyl-4-hydroxy-2H-pyran-2-one] displayed an IC50 of 10 to 100 µM.

Turning to `CC(=O)Oc1c(C)c(-c2cc3ccccc3o2)oc(=O)c1C(C)C` [Example 287, 4-acetyloxy-6-(benzofuran-2-yl)-3-isopropyl-5-methyl-2H-pyran-2-one], the IC50 is 10 to 100 µM.

`Cc1c(-c2cc3cc(OCC4CCCCN4C(=O)OC(C)(C)C)ccc3o2)oc(=O)c(C)c1O` (stereo not drawn) [Example 220, 6-(5-(1-t-butoxycarbonylpiperidin-2-ylmethoxy)benzofuran-2-yl)-3,5-dimethyl-4-hydroxy-2H-pyran-2-one] came in with an IC50 of 10 to 100 µM.

In the case of `CC(=O)Oc1c(C)c(-c2cc3cc(O)ccc3o2)oc(=O)c1C` [Example 261, 4-acetyloxy-3,5-dimethyl-6-(5-hydroxybenzofuran-2-yl)-2H-pyran-2-one], the IC50 fell in the range of 10 to 100 µM.

In turn, `Cc1c(-c2cc3cc(OC4CCN(C(=O)OC(C)(C)C)CC4)ccc3o2)oc(=O)c(C)c1O` [Example 222, 6-(5-(1-t-butoxycarbonylpiperidin-4-yloxy)benzofuran-2-yl)-3,5-dimethyl-4-hydroxy-2H-pyran-2-one] came in with an IC50 of 10 to 100 µM.

`Cc1c(-c2cc3cc(OC(CN(C)C)CN(C)C)ccc3o2)oc(=O)c(C)c1O` [Example 107, 6-(5-(1,3-bis(dimethylamino)-2-propoxy)benzofuran-2-yl)-3,5-dimethyl-4-hydroxy-2H-pyran-2-one] returned a 50% inhibitory concentration (IC50) of 10 to 100 µM.

`Cc1c(O)c(Oc2ccccc2)c(-c2cc3ccccc3o2)oc1=O` [Example 67, 6-(benzofuran-2-yl)-4-hydroxy-3-methyl-5-phenoxy-2H-pyran-2-one] returned an IC50 of 10 to 100 µM.

For the molecule `COc1ccc(C(=O)Oc2ccc3oc(-c4oc(=O)c(C)c(OC(C)=O)c4C)cc3c2)cc1` [Example 263, 4-acetyloxy-3,5-dimethyl-6-(5-(4-methoxybenzoyloxy)benzofuran-2-yl)-2H-pyran-2-one], the IC50 was in the range of 10 to 100 µM.

Turning to `COC(=O)c1ccc2cc(-c3oc(=O)c(C)c(O)c3C)oc2c1` [Example 22, 3,5-dimethyl-4-hydroxy-6-(6-(methoxycarbonyl)benzofuran-2-yl)-2H-pyran-2-one], the IC50 was 10 to 100 µM.

As for `CCNc1ccc2oc(-c3oc(=O)c(C)c(O)c3C)cc2c1` [Example 46, 3,5-dimethyl-6-(5-(ethylamino)benzofuran-2-yl)-4-hydroxy-2H-pyran-2-one], the IC50 was 10 to 100 µM.

On to `COc1c(-c2cc3ccccc3o2)oc(=O)c(C)c1O` [Example 37, 6-(benzofuran-2-yl)-4-hydroxy-5-methoxy-3-methyl-2H-pyran-2-one], for which the IC50 was in the range of 10 to 100 µM.

`Cc1c(-c2cc3cc(C=O)ccc3o2)oc(=O)c(C)c1O` [Example 7, 3,5-dimethyl-6-(5-formylbenzofuran-2-yl)-4-hydroxy-2H-pyran-2-one] came in with an IC50 of 10 to 100 µM.

In the case of `Cc1c(-c2cc3ccccc3o2)oc(=O)c(C)c1OS(=O)(=O)C(F)(F)F` [Example 43, 6-(benzofuran-2-yl)-3,5-dimethyl-4-trifluoromethanesulfonyloxy-2H-pyran-2-one], the IC50 fell in the range of 10 to 100 µM.

As for `Cc1c(-c2cc3cc(OCc4ccccc4Cl)ccc3o2)oc(=O)c(C)c1O` [Example 240, 6-(5-(2-chlorobenzyloxy)benzofuran-2-yl)-3,5-dimethyl-4-hydroxy-2H-pyran-2-one], the IC50 was in the range of 10 to 100 µM.

With `COc1ccc(C(Oc2ccc3oc(-c4oc(=O)c(C)c(O)c4C)cc3c2)c2ccc(OC)cc2)cc1` [Example 201, 6-(5-(bis(4-methoxyphenyl)methoxy)benzofuran-2-yl)-3,5-dimethyl-4-hydroxy-2H-pyran-2-one], the IC50 lay within 10 to 100 µM.

For the molecule `COc1cccc2oc(-c3oc(=O)c(C)c(OC(C)=O)c3C)cc12` [Example 266, 4-acetyloxy-3,5-dimethyl-6-(4-methoxybenzofuran-2-yl)-2H-pyran-2-one], the IC50 is 10 to 100 µM.

Still in this test, the particulars now being: Homo sapiens, HepG2; group criterion, alternatives: IC50 less than 10 μM, or at least 30% inhibition at 1 μM, or at least 50% inhibition at 10 μM.
`Cc1c(-c2cc3cc(OCc4ccc(Cl)c(Cl)c4)ccc3o2)oc(=O)c(C)c1O` [Example 159, 6-(5-(3,4-dichlorobenzyloxy)benzofuran-2-yl)-3,5-dimethyl-4-hydroxy-2H-pyran-2-one]: the IC50 is < 10 µM.

Consider `Cc1c(-c2cc3cc(C4CCNCC4)ccc3o2)oc(=O)c(C)c1O` [Example 307, 3,5-dimethyl-4-hydroxy-6-(5-(4-piperidinyl)benzofuran-2-yl)-2H-pyran-2-one], for which the IC50 is < 10 µM.

Consider `Cc1c(-c2cc3cc([N+](=O)[O-])ccc3o2)oc(=O)c(C)c1O` [Example 45, 3,5-dimethyl-4-hydroxy-6-(5-nitrobenzofuran-2-yl)-2H-pyran-2-one], for which the IC50 is < 10 µM.

On to `Cc1c(-c2cc3cc(OCc4cncs4)ccc3o2)oc(=O)c(C)c1O` [Example 243, 3,5-dimethyl-4-hydroxy-6-(5-(5-thiazolylmethoxy)benzofuran-2-yl)-2H-pyran-2-one], for which the half-inhibitory concentration (IC50) is < 10 µM.

Consider `C#CCOc1ccc2oc(-c3oc(=O)c(C)c(O)c3C)cc2c1` [Example 215, 3,5-dimethyl-4-hydroxy-6-(5-(2-propyn-1-yloxy)benzofuran-2-yl)-2H-pyran-2-one], for which the IC50 was < 10 µM.

`Cc1c(-c2cc3cc(OCc4cocn4)ccc3o2)oc(=O)c(C)c1O` [Example 249, 3,5-dimethyl-4-hydroxy-6-(5-(4-oxazolylmethoxy)benzofuran-2-yl)-2H-pyran-2-one]: the IC50 was < 10 µM.

For `Cc1c(-c2cc3cc(OCc4ccsc4)ccc3o2)oc(=O)c(C)c1O` [Example 246, 3,5-dimethyl-4-hydroxy-6-(5-(3-thienylmethoxy)benzofuran-2-yl)-2H-pyran-2-one], the IC50 is < 10 µM.

As for `Cc1c(-c2cc3cc(OCc4ccccc4F)ccc3o2)oc(=O)c(C)c1O` [Example 78, 3,5-dimethyl-6-(5-(2-fluorobenzyloxy)benzofuran-2-yl)-4-hydroxy-2H-pyran-2-one], the IC50 is < 10 µM.

Consider `CC(=O)Oc1c(C)c(-c2cc3ccccc3o2)oc(=O)c1C` [Example 1, 4-acetyloxy-6-(benzofuran-2-yl)-3,5-dimethyl-2H-pyran-2-one], for which the IC50 is < 10 µM.

As for `COc1cccc2cc(-c3oc(=O)c(C)c(O)c3C)oc12` [Example 13, 3,5-dimethyl-4-hydroxy-6-(7-methoxybenzofuran-2-yl)-2H-pyran-2-one], the IC50 is < 10 µM.

On to `Cc1c(-c2cc3cc(N(C)C)ccc3o2)oc(=O)c(C)c1O` [Example 48, 3,5-dimethyl-6-(5-(dimethylamino)benzofuran-2-yl)-4-hydroxy-2H-pyran-2-one], for which the IC50 was < 10 µM.

On to `CC(=O)Oc1c(C)c(-c2cc3cc(OCc4nccs4)ccc3o2)oc(=O)c1C` [Example 59, 4-acetyloxy-3,5-dimethyl-6-(5-(2-thiazolylmethoxy)benzofuran-2-yl)-2H-pyran-2-one], for which the IC50 was < 10 µM.

With `Cc1c(-c2cc3cc(OCc4ccccc4C(F)(F)F)ccc3o2)oc(=O)c(C)c1O` [Example 120, 3,5-dimethyl-4-hydroxy-6-(5-(2-(trifluoromethyl)benzyloxy)benzofuran-2-yl)-2H-pyran-2-one], the IC50 is < 10 µM.

As to `Cc1c(-c2cc3cc(C(=O)NCc4ccncc4)ccc3o2)oc(=O)c(C)c1O` [Example 306, 3,5-dimethyl-4-hydroxy-6-(5-(4-pyridylmethylcarbamoyl)benzofuran-2-yl)-2H-pyran-2-one], the IC50 is < 10 µM.

Turning to `Cc1c(-c2cc3cc(C(=O)N(C)Cc4ccccc4)ccc3o2)oc(=O)c(C)c1O` [Example 308, 6-(5-(N-benzyl-N-methylcarbamoyl)benzofuran-2-yl)-3,5-dimethyl-4-hydroxy-2H-pyran-2-one], the IC50 was < 10 µM.

Take `COc1ccc2oc(-c3oc(=O)c(C)c(OC(C)=O)c3C)cc2c1` [Example 268, 4-acetyloxy-3,5-dimethyl-6-(5-methoxybenzofuran-2-yl)-2H-pyran-2-one]: the IC50 was < 10 µM.

For the molecule `Cc1c(-c2cc3cc(C(=O)Nc4ccc(S(N)(=O)=O)cc4)ccc3o2)oc(=O)c(C)c1O` [Example 305, 3,5-dimethyl-4-hydroxy-6-(5-(4-(sulfamoyl)phenylcarbamoyl)benzofuran-2-yl)-2H-pyran-2-one], the IC50 is < 10 µM.

Consider `Cc1c(O)c(C(C)C)c(-c2cc3ccccc3o2)oc1=O` [Example 34, 6-(benzofuran-2-yl)-4-hydroxy-5-isopropyl-3-methyl-2H-pyran-2-one], for which the IC50 is < 10 µM.

On to `COc1ccc2oc(-c3oc(=O)c(C)c(O)c3C)cc2c1` [Example 12, 3,5-dimethyl-4-hydroxy-6-(5-methoxybenzofuran-2-yl)-2H-pyran-2-one], for which the IC50 is < 10 µM.

`CCc1c(-c2cc3cc(OCc4ccccc4)ccc3o2)oc(=O)c(C)c1O` [Example 57, 6-(5-benzyloxybenzofuran-2-yl)-5-ethyl-4-hydroxy-3-methyl-2H-pyran-2-one]: the IC50 is < 10 µM.

In general, IC50 refers to the midpoint of a concentration-inhibition curve. A low value points to inhibition by little substance.
